Data: EP3153160A1, “USE OF XANTHOPHYLLS FOR THE TREATMENT OF CANCERS” (Lu, Chuen Wei, priority 2015, dated 2017)

Assays:
Format in all cases: cell-based
M059J = M059J cell growth, cell counting; conditions: 100, 200 or 400 µM astaxanthin for 24 hours or 48 hours, cell numbers counted, vs DMSO; Figure 7
Experimental: (§1) Human U87MG (ATCC, ATCC® HTB-14™) cell line was grown in DMEM medium supplemented with 10% fetal bovine serum at 37°C in a humidified atmosphere at 5% CO2. M059K (ATCC, ATCC® CRL-2365™) and M059J (ATCC, ATCC® CRL-2366™) cell lines were grown in Dulbecco's modified Eagle medium (DMEM)-F12 supplemented with 10% fetal bovine serum at 37°C in a humidified atmosphere at 5% CO2.
(§2) Astaxanthin was dissolved in dimethyl sulfoxide (DMSO) at concentration of 20 mM as stock solution.
(§3) The U87MG, M059K, and M059J cell lines were treated with DMSO or 100, 200 or 400 µM of astaxanthin for 24 hours or 48 hours and cell numbers were counted.

M059K = M059K cell growth, cell counting; conditions: 100, 200 or 400 µM astaxanthin for 24 hours or 48 hours, cell numbers counted, vs DMSO; Figure 6
Experimental: as §1, §2, §3

Human U87MG [1] = test: MTT assay of U87MG cell viability; conditions: DMSO or different concentrations of astaxanthin, Figures 5A and 5B
Experimental: (§4) Cells were washed with PBS after the treatment, followed by addition of 1 ml MTT (3-(4,5-cimethylthiazol-2-yl)-2,5-diphenyl tetrazolium bromide) solution (2 mg/ml in PBS) in each well. After incubation for 3 hours at 37°C, 2 ml of DMSO was added and cells were incubated in the dark for 30 minutes. Absorbance was measured at the wavelength of 570 nm (OD570).
as §1, §2, §3

[2] = test system: Mouse adrenocortical Y1 cell line; test: MTT assay of Y1 cell viability; conditions: Y1 cells, 40 µM astaxanthin for 48 hours, compared with DMSO treated group, Fig. 3
Experimental: (§5) Mouse adrenocortical Y1 cell line (ATCC, ATCC® CCL-79™) was grown in Dulbecco's modified Eagle medium (DMEM)-F12 supplemented with 10% fetal bovine serum at 37°C in a humidified atmosphere at 5% CO2.
(§6) Astaxanthin (Model NO: ATP-9601A; Yuan Yu Bio-Tech (Taiwan), Co., Ltd) was dissolved in dimethyl sulfoxide (DMSO) at concentration of 20 mM as stock solution.
(§7) The Y1 cells were incubated with DMSO or 40 µM of astaxanthin for 1, 2 or 3 days before analysis.
as §4

Human U2OS = test: U2OS cell growth, cell counting; conditions: 100, 200 or 400 µM astaxanthin for 72 hours, cell numbers counted, vs DMSO; Figure 8
Experimental: Human U2OS (ATCC, ATCC® HTB-96™) cell line was grown in DMEM medium supplemented with 10% fetal bovine serum at 37°C in a humidified atmosphere at 5% CO2.
as §2
The U2OS cell line was treated with DMSO or 100, 200 or 400 µM of astaxanthin for 72 hours and cell numbers were counted.

Human U87MG [3] = test: U87MG cell growth, cell counting; conditions: 100, 200 or 400 µM astaxanthin for 24 hours or 48 hours, cell numbers counted, vs DMSO; Figure 4
Experimental: as §1, §2, §3

[4] = test system: Mouse adrenocortical Y1 cell line; test: Y1 cell growth, cell counting; conditions: 40 µM astaxanthin, 1, 2 or 3 days of treatment, compared with control (DMSO treated) group; Figures 1 and 2
Experimental: as §5, §6, §7

Compound: CC1=C(/C=C/C(C)=C/C=C/C(C)=C/C=C/C=C(C)/C=C/C=C(C)/C=C/C2=C(C)C(=O)C(O)CC2(C)C)C(C)(C)CC(O)C1=O (stereo not shown) [astaxanthin, Astaxanthin]
- M059J cell growth (M059J): inhibited
- M059K cell growth (M059K): inhibited
- viability of U87MG cells (Human U87MG [1]): reduced
- OD570 [2]: reduced
- U2OS cell growth (Human U2OS): inhibited U2OS cell growth in a dose-dependent manner
- U87MG cell growth (Human U87MG [3]): inhibited U87MG cell growth in a dose-dependent and time-dependent manner
- number of Y1 cells [4]: reduced
